From patent US20040219097A1, “Composition useful for the diagnosis, imaging and treatment of tumors” (priority 2003, published 2004)

What was measured:
JJ5 Breast Cancer cells [1] = assay: Cytotoxicity (colony-forming) assay against JJ5 breast cancer cells; assay type: cell-based, human; details: 14 days
Experimental: The number of cells seeded was varied from 3×10^4 to 3×10^6cells to obtain approximately 400 viable colonies/dish taking into account the plating efficiency and the expected level of cytotoxicity. Control dishes contained JJ5 breast cancer cells which were incubated with normal saline. Growth medium was added and the cells were cultured at 37° C./5% CO^2 for 14 days. The growth medium was removed and the colonies were stained with methylene blue (1% in a 1:1 mixture of ethanol and water) then washed twice. The number of colonies per dish was counted using a manual colony counter (Manostat Corp). The plating efficiency was calculated by dividing the number of colonies observed by the number of cells seeded in each dish.

JJ5 Breast Cancer cells [2] = assay: Growth inhibition assay against JJ5 breast cancer cells; assay type: cell-based, human; details: 4 days culture
Experimental: Growth medium was added and the cells were cultured at 37° C./5% CO^2 for 4 days. The cells were then recovered by trypsinization and counted in a hemocytometer. Control dishes contained cells cultured in growth medium containing ^111In-DTPA or growth medium alone.

JJ5 Breast Cancer cells [3] = assay: Binding of EGF-^111In-labeled transferrin compound to breast cancer cells (radioligand binding, kinetics, retention); set-up: species or system human
Experimental: For the normal breast cell line HBL-100, 8000 EGFR/cell has been reported. The expression of EGFR in breast cancer cell lines has a reported range of 800 EGFR/cell for MCF-7 cells to 10^6 EGFR/cell for MDA-MB-468 cells. […] Utilizing the Auger electron emitter ^111In was used in the initial experiments to illustrate the utility of the invention using EGF-^111In-labeled transferrin compounds. The EGF-^111In-labeled transferrin (0.25-80 ng) was incubated with 1.5×10^6 cells/dish JJ5 Breast Cancer (prepared from BCBM JJ5) cells in 1 mL of 0.1% human serum albumin in 35 mm multiwell culture dishes at 37° C. for 30 minutes. The cells were transferred to a centrifuge tube and centrifuged. The cell pellet was separated from the supernatant and counted in a g-scintillation counter to determine bound (B) and free (F) radioactivity. Non-specific binding was determined by conducting the assay in 100 nM hEGF. […] Internalized fraction was measured by determining the proportion of radioactivity which could not be displaced from the cell surface by 100 nM hEGF. Cell-associated binding (surface-binding and intracellular accumulation) was expressed as a percentage of medium radioactivity bound per mg of cell study protein.

| Molecule | cell killing (JJ5 Breast Cancer cells [1]; <6 pCi/cell) | growth inhibition of the JJ5 cells compared to the medium control (JJ5 Breast Cancer cells [2]; 3.5 pCi/cell) [%] | reduction in cell survival for JJ5 cells (JJ5 Breast Cancer cells [1]; 8 pCi/cell) [%] | internalization by cancer cells, in words (JJ5 Breast Cancer cells [3]) | binding by the breast cancer cells (kinetics, in words) (JJ5 Breast Cancer cells [3]; JJ5 cells, 37° C.) | retained by the breast cancer cells (JJ5 Breast Cancer cells [3]; JJ5 cells, 37° C.) | affinity constant for binding to JJ5 cells (JJ5 Breast Cancer cells [3]; JJ5 cells, 37° C., 30 minutes) [L/mol] | growth inhibition of the JJ5 cells compared to the medium control (JJ5 Breast Cancer cells [2]; 3.4 pCi/cell) [%] |
| --- | --- | --- | --- | --- | --- | --- | --- | --- |
| [In+3].[O-]c1cccc2cccnc12.[O-]c1cccc2cccnc12.[O-]c1cccc2cccnc12 [^111In-oxine, reference compound] | greater than 99% | 91 | – | – | – | – | – | – |
| EGF-^111In-labeled transferrin compound: human EGF linked to ^111In-labeled human transferrin | – | – | 99 | rapidly internalized | rapidly bound | at least 24 hours | 8e+08 | 83 |
